Source: patent US9381281B2, “Drug eluting mesh to prevent infection of indwelling transdermal devices” (TYRX, INC., priority 2011, dated 2016)
Converted amounts (≈) assume the structure as drawn.

Assays:
[1] = test system: myofibroblast formation; settings: animal studies of capsular contracture with breast implants (Ajmal et al. 2003); cited from earlier work
[2] = test system: Staphylococcus aureus ATCC 6538; experiment: Broth dilution MIC; format: cell-based; settings: ATCC6538, S. aureus, read-out: Minimum Inhibitory Concentration
From the text: (§1) Establishing the MIC of antimicrobials is a necessary step in the process of establishing effective use concentrations. Approved standards for this activity with antibiotics are published by NCCLS. These standards are primarily intended for use in clinical settings with patient isolates. However, they represent a consensus methodology for best practice in determining MICs that are reproducible and defensible. The principles upon which they are based provide a sound framework for determining the MIC for the test.
(§2) The broth dilution method was used to measure quantitatively the in vitro activity of an antimicrobial agent against a given microbial isolate. To perform the test, a series of tubes were prepared with a broth to which various concentrations of the antimicrobial agent were added. The tubes were then inoculated with a standardized suspension of the test organism. After incubation the tubes were examined and the minimal inhibitory concentration (MIC) was determined.
(§3) The following organism were used: Acinetobacter baumanii A TCC 19606; Staphylococcus epidermidis A TCC 14990; Staphylococcus aureus ATCC 6538; Methicillin-resistant Staphylococcus aureus ATCC 33591; Escherichia coli ATCC 8739; Staphylococcus capitis ATCC 35661; or Staphylococcus schleiferi ATCC 43808.

[3] = test system: Staphylococcus epidermidis A TCC 14990; experiment: Broth dilution MIC; format: cell-based; settings: ATCC14990, S. epidermidis, read-out: Minimum Inhibitory Concentration
From the text: as §1, §2, §3

[4] = test system: Escherichia coli ATCC 8739; experiment: Broth dilution MIC; format: cell-based; settings: ATCC8739, E. coli, read-out: Minimum Inhibitory Concentration
From the text: as §1, §2, §3

[5] = test system: Staphylococcus schleiferi ATCC 43808; experiment: Broth dilution MIC; format: cell-based; settings: ATCC43808, read-out: Minimum Inhibitory Concentration
From the text: as §1, §2, §3

[6] = test system: Methicillin-resistant Staphylococcus aureus ATCC 33591; experiment: Broth dilution MIC; format: cell-based; settings: ATCC 33591 / MRSA, read-out: Minimum Inhibitory Concentration
From the text: as §1, §2, §3

[7] = test system: Acinetobacter baumanii A TCC 19606; experiment: Broth dilution MIC; format: cell-based; settings: Acinetobacter baumannii, ATCC19606, read-out: Minimum Inhibitory Concentration
From the text: as §1, §2, §3

[8] = test system: Staphylococcus capitis ATCC 35661; experiment: Broth dilution MIC; format: cell-based; settings: ATCC35661, S. capitis, read-out: Minimum Inhibitory Concentration
From the text: as §1, §2, §3

SMILES | myofibroblast formation [1] | MIC [2] | MIC [3] | MIC [4] | MIC [5] | MIC [6] | MIC [7] | MIC [8]
O=S(=O)([O-])CCS.[Na+] [Mesna, sodium 2-mercaptoethane sulfonate] | diminish myofibroblast formation | – | – | – | – | – | – | –
CN(C)c1ccc(O)c2c1C[C@H]1C[C@H]3[C@H](N(C)C)C(O)=C(C(N)=O)C(=O)[C@@]3(O)C(O)=C1C2=O [Minocycline] | – | 0.017 mg/L (≈ 0.0372 µM) | 0.017 mg/L (≈ 0.0372 µM) | 2.23 mg/L (≈ 4.88 µM) | 0.017 mg/L (≈ 0.0372 µM) | 2.23 mg/L (≈ 4.88 µM) | 0.14 mg/L (≈ 0.306 µM) | 0.017 mg/L (≈ 0.0372 µM)
CO[C@H]1/C=C/O[C@@]2(C)Oc3c(C)c(O)c4c(O)c(c(/C=N/N5CCN(C)CC5)c(O)c4c3C2=O)NC(=O)/C(C)=C\C=C\[C@H](C)[C@H](O)[C@@H](C)[C@@H](O)[C@@H](C)[C@H](OC(C)=O)[C@@H]1C [Rifampin] | – | 0.016 mg/L (≈ 0.0194 µM) | 0.016 mg/L (≈ 0.0194 µM) | 2.06 mg/L (≈ 2.5 µM) | 0.016 mg/L (≈ 0.0194 µM) | 2.06 mg/L (≈ 2.5 µM) | 0.129 mg/L (≈ 0.157 µM) | 0.016 mg/L (≈ 0.0194 µM)
